This note sets out measurements from patent US20190337978A1, “CRYSTALLIZATION METHODS USING FUNCTIONALIZED NANOPOROUS MATRICES AND RELATED SYSTEMS” (Massachusetts Institute of Technology, priority 2018, published 2019).

One data set is described as follows: physchem. Particulars: 25 °C, thermodynamic from solid.
Data set [1] is described as follows: Capillary XRPD with Zorbax, critical minimum concentration for crystallization. Particulars: isopropyl alcohol solutions in capillaries containing functionalized Zorbax.
Text: In order to test this hypothesis, solutions of successively lower concentrations were loaded into capillaries containing the functionalized Zorbax® and tested for the presence of crystals. […] The tubes were made of glass #50, with a 1.0 mm OD, wall thickness of 0.01 mm and length of 80 mm. The capillary tubes were packed with Zorbax® or CPG material by scooping powder into the tip, placing the capillary in a larger diameter glass pipette, and tapping to allow gravity to act on the powder to settle. Once packed, the tubes were suctioned at the open end with a 1-mL plastic syringe, using a small piece of rubber tubing to adapt the fit. The filled capillary was then immediately dipped into the undersaturated API solutions to allow the solution to fill the tube. Molten wax was used to plug the end of the capillary, and the tip was then heated in a Bunsen burner flame to seal. Additional capillaries were filled with the API solution and dry commercial API alone.
To check the hypothesis that there exists a critical minimum undersaturation below which the Zorbax® cannot induce crystallization, solutions of successively decreasing concentrations were tested with the capillary method.
The nature of data set [2]: Batch crystallization with Zorbax, mother liquor concentration via HPLC. The format is physicochemical. To be noted: after batch crystallization of saturated isopropyl alcohol solution with Zorbax, stirred 6 h at 25° C.; effective solubility.

≈ marks a conversion by molar mass, not a printed value. Where a name gives a salt, the structure may show the parent alone.

The solubility is the dissolved amount per volume that the medium holds. In “physchem” (water), `CC(=O)Nc1ccc(O)cc1` [Acetaminophen] gave a solubility of 15.5 mg/mL (≈ 103 mM).

In the case of `CC(=O)Oc1ccccc1C(=O)O` [Aspirin], the solubility in the data set “physchem” (organic solvent or mixture) is 90 mg/mL (≈ 500 mM). For the same molecule, the “Concentration range from XRPD (critical minimum concentration for crystallization to occur)” value (from here on “Concentration range from XRPD”) in data set [1] was in the range of 65000 to 70000 µg/mL. For the same molecule, the Mother liquor concentration in data set [2] is 66.8 mg/mL.

For `CN(C)CCOC(c1ccccc1)c1ccccc1` [Diphenhydramine hydrochloride], the “Concentration range from XRPD” value in data set [1] is 25000 to 27000 µg/mL.

As to `NC(=O)c1cccnc1` [Nicotinamide], the solubility in “physchem” (organic solvent or mixture) was 46.5 mg/mL (≈ 381 mM). The “Concentration range from XRPD” value in data set [1] lay within 30000 to 35000 µg/mL. This molecule also gave a Mother liquor concentration in data set [2] of 33.2 mg/mL.
